We go through two substances from US20040053872A1, “New sequences” (priority 2000, published 2004).

Read-outs that look alike come from different tables or passages of the source. Strand notation (5' to 3'): a small letter for the sugar, then the base; units joined by * are phosphorothioate-linked, units joined directly phosphodiester-linked; [ ] holds rarer units or linkages, { } end groups; capitals alone tell only the bases. r = 2'-OH (RNA) Where only a bound is given, the exact number is not on record here.

Data set [1] deals with T1, recombinant HIV-1 RT, ref RT (HIV type B, clone BH 10) (Human immunodeficiency virus type 1 group M subtype B, UniProt P03366). The data set is classed as biochemical. Details: performed by recombinant HIV-1 RT:s with defined. The settings on record: second strand DNA synthesis, preincubation 30 minutes at 33° C., 3 hours, read-out: IC50 of indicated inhibitor in DNAp assay. The source says:
The flourimetric DNA-polymerase assay used is available from Cavidi Tech AB, Uppsala, Sweden. It is based on a short DNA primer analogous to a part of the tRNA^Lys3 sequence. The template is a single stranded deoxynucleotide template with part of the sequence complementary to the primer. The enzyme reaction is dependent on all four deoxynucleotide bases. The thymidine triphosphate is, however, replaced by BrdUTP. The amount of BrdUMP incorporated into DNA during the polymerase reaction is detected with an alkaline phosphatase (Ap) conjugated anti-BrdU monoclonal antibody. An Ap substrate, 4-methylumbelliferyl phosphate, is finally used for fluorimetric product detection.
(ii) Protocol for determination of inhibition of second strand synthesis on a variable DNA template: The inhibition studies were performed in a modified DNA polymerase assay. The inhibitors were serially diluted in five steps, enzyme dilution was added and the enzyme/inhibitor mixtures were incubated for 30 minutes at 33° C. The enzyme reaction was initiated by addition of 75 μl aliquots of the enzyme/inhibitor mixture to each well of a microtiter plate containing 75 μl DNA polymerase reaction mixture per well. The polymerase reaction was allowed to proceed for 3 hours at 33° C. whereupon the reaction was terminated by a wash of the plate. […]

The target of data set [2] is T2, recombinant HIV-1 RT L100I (Human immunodeficiency virus type 1 group M subtype B, UniProt P03366, L699I).
T2 construct: performed by recombinant HIV-1 RT:s with defined
The settings on record: binding 90 min at 33° C. How it is done: (§1) (iii) Protocol for RT binding inhibition (BIC) assay: The study was performed in a modified DNA polymerase assay. The inhibitors were serially diluted in five steps, enzyme dilution was added and the enzyme/inhibitor mixtures were incubated for 30 minutes at 33° C. Aliquots of the enzyme/inhibitor mixture were transferred to each well of a microtiter plate containing either immobilised primer, or primer/template. The enzyme was allowed to bind to the immobilised polymer for 90 min at 33° C. The amount of RT used was standardised to an activity corresponding to 40-60 pg (3.3-5.0×10^−16 mol) reference HIV-1 RT per well. The plates were then washed to remove unbound enzyme whereupon the amount of bound enzyme was determined by addition of the appropriate reaction solution for polymerisation (i e a reaction solution devoid of primer for studies of primer binding and a reaction solution devoid of both primer and template for studies of binding to primed template). The polymerase reaction was allowed to proceed for 3 hours at 33° C., whereupon the reaction was terminated by a wash of the plate.
(§2) The capacity of the indicated substances to inhibit the binding to primer or to primed DNA template of a panel of recombinant HIV 1 subtype B RTs was studied according to “Protocol for RT binding inhibition (BIC) assay” (protocol (iii) above).

Data set [3] addresses T3, recombinant HIV-1 RT E478Q (Human immunodeficiency virus type 1 group M subtype B, UniProt P03366, E1077Q).
T3 construct: performed by recombinant HIV-1 RT:s with defined
The note with it: binding 90 min at 33° C. How it is done: as §1, §2

The target of data set [4] is T4, recombinant HIV-1 RT L100I/K103N (Human immunodeficiency virus type 1 group M subtype B, UniProt P03366, K702N/L699I).
T4 construct: performed by recombinant HIV-1 RT:s with defined
The data set can be described thus: RT assay: inhibition of RNA dependent DNA polymerisation (modified Lenti RT assay). The settings on record: enzyme/inhibitor preincubated 30 minutes at 33° C., BrdUTP 0.35 μM, odT22 0.03 ng per well, 3 hours, read-out: IC50 of indicated inhibitor in RT assay. The data set is classed as biochemical. How it is done:
(§3) The flourimetric RT assay (Cavidi® Lenti RT activity kit), available from Cavidi Tech, Uppsala, Sweden, was used for the determination of RT activity. In short, poly(rA) covalently bound to the wells of a 96 well microtiter plate serves as template for the incorporation of 5-bromodeoxyuridine 5′-triphosphate (BrdUTP) during the reverse transcription step at 33° C. The amount of bromodeoxyuridine monophosphate (BrdUMP) incorporated into DNA is detected with an alkaline phosphatase (Ap) conjugated, anti-BrdU monoclonal antibody. An Ap substrate, 4-methylumbelliferyl phosphate, is finally used for fluorimetric product detection.
(§4) (i) Protocol for determination of inhibition of RNA dependent DNA polymerisation: The inhibition studies were performed in a modified Lenti RT assay. The inhibitors were serially diluted in five steps, whereupon enzyme dilution was added and the enzyme/inhibitor mixtures were incubated for 30 minutes at 33° C. The enzyme reaction was initiated by addition of 100 μl aliquots of the enzyme/inhibitor mixture to each well of a microtiter plate containing 100 μl RT reaction mixture per well. The polymerase reaction was allowed to proceed for 3 hours at 33° C., whereupon the reaction was terminated by a wash of the plate. […] The amount of RT used was standardised to an activity corresponding to 90-130 pg (7-10×10^−16 mol) reference HIV-1 RT per well […]

Data set [5] concerns panel of recombinant HIV 1 subtype B RTs. The data set can be described thus: RT assay: inhibition of RNA dependent DNA polymerisation, whole RT panel. The data set is classed as biochemical. The note with it: for IC50: all RTs of the panel, summary of table 1, read-out: IC50, range over all RTs studied (reverse transcription). The protocol:
as §3
(i) Protocol for determination of inhibition of RNA dependent DNA polymerisation: The inhibition studies were performed in a modified Lenti RT assay. […]
The final nucleotide substrate (BrdUTP) concentration was 0.35 μM, and the primer (odT22) amount was 0.03 ng per well.

Data set [6] deals with T1, recombinant HIV-1 RT, ref RT (HIV type B, clone BH 10). The data set can be described thus: RT assay: inhibition of RNA dependent DNA polymerisation (modified Lenti RT assay). The data set is classed as biochemical. Details: performed by recombinant HIV-1 RT:s with defined. The settings on record: enzyme/inhibitor preincubated 30 minutes at 33° C., BrdUTP 0.35 μM, odT22 0.03 ng per well, 3 hours, read-out: IC50 of indicated inhibitor in RT assay. The protocol: as §3, §4

Where [7] appears, read: immobilised primer, read-out: Inhibition of binding to primer (BIC50).
The mark [8] stands for this setting: immobilised primer/template, read-out: Inhibition of binding to template/primer (BIC50).

Regarding “substance 198: 15-mer RNA phosphorothioate with the base sequence of tRNALys3 anticodon stem and loop, SEQ ID NO:7 (rC*rA*rG*rA*rC*rU*rU*rU*rU*rA*rA*rU*rC*rU*rG) [reference compound]”, the IC50 in data set [1] was 550 nM; in data set [2] (setting [7]), above 1000 nM; in data set [2] (setting [8]) it was above 1000 nM; in data set [3] (setting [7]) it was above 1000 nM; in data set [3] (setting [8]), above 1000 nM; in data set [4] it was 900 nM. The IC50 is 340 to 1100 nM in data set [5] and 470 nM in data set [6].

Turning to “substance 199: 35-mer RNA molecule having the sequence set out in SEQ ID NO:5; similar to SEQ ID NO:4 with some naturally occurring nucleotide derivatives (GCUCAGNCGGNAGAGCANCAGACUUUUAANCUGAN; RNA, backbone, methylation of C and the base at N not given here; naturally occurring modified nucleosides at n positions)”, the IC50 in data set [1] was 40 nM; in data set [2] (setting [7]), 7 nM; in data set [3] (setting [7]), 7 nM; in data set [3] (setting [8]), 14 nM; in data set [4], 12 nM; in data set [5] it was 6 to 12 nM. Also, the IC50 in data set [6] is 6.6 nM. Further, in data set [5] (alternative procedure without pre-incubation), the “Results with inhibitor added directly to the RT reaction mixture compared with the standard procedure” value is reported as “not significantly different”.
